Counter-ions that a name gives are not always drawn.
Tests used:
[1] = target: T1, IK1 channel (Homo sapiens, UniProt O15554); test: IK1 channel opening activity measurement test (membrane potential, T84 cells); type: cell-based; design: T84 cells (which is known as IK1 channel expressing cells); endogenous in cells; host or cells: T84 cells; settings: NS-309 0.2 μM = 100%, DMSO = 0%, read-out: EC50 of IK1 channel opening action
Protocol: (§1) Cells ((1) T84 cells (which is known as IK1 channel expressing cells) or (2) human IK1 channel expressing cells (transgene: NM_002250.2, use cells: CHO dhfr-)) were seeded in a 384-well microplate so as to be 12000 cells/well. After incubation overnight, a medium was suctioned, and 20 μL of FLIPR Membrane Potential Assay Reagent (FLIPR Membrane Potential Assay kit, manufactured by Molecular Devices LLC) was added to the medium, followed by incubation at room temperature for 1 hour. Fluorescence intensity was measured at 530 nm/590 nm, which was set as a pre value. 20 μL of a buffer solution containing a test drug (which contains 0.01% pluronic acid and 20 mM Hepes-NaOH (pH7.4); 0.2% CHAPS in HBSS) was added, followed by incubation at room temperature for 1 hour, and a post value was measured. Activity of the test drug was determined from relative values where NS-309 (6,7-dichloro-1H-indole-2,3-dione 3-oxime, manufactured by Sigma-Aldrich Co., LLC; 0.2 μM; DMSO solution) treatment was set as 100%, and DMSO treatment was set as 0%. Activity value (%) at each concentration was plotted against a concentration of the test drug, and EC50 value was calculated by a Logistic regression method.
(§2) The EC50 values of an IK1 channel opening action of the several representative Example compounds of the invention are shown in the following Table (in the Table, No. means a number, and Ex means an Example compound number. The same shall apply hereinafter.). […] With P<0.05 in each assay, it was determined that there was a significant difference.

[2] = tested on: abdominal pain by rat colorectal distension; test: Effect on abdominal pain by rat colorectal distension; type: in vivo; settings: for MED (minimum effective dose): Wistar male rats, oral, 1 hour after administration, abdominal flexion behavior; for significance versus solvent group: at the dose shown in Table 3, P<0.05
Protocol: (§3) Moreover, in Test Examples 2 to 6, a 0.5% methyl cellulose suspension was used as a test drug.
After Wistar male rats (CLEA Japan, Inc.) were anesthetized with isoflurane, a balloon was inserted into the colon. After awakening, the test drug was orally administered, and after 1 hour, abdominal pain induced by balloon expansion was measured as an indicator of an abdominal flexion behavior. Each stimulus (15, 30, 45, 60 mmHg) was repeatedly performed for 5 minutes at 5-minute intervals. A significant difference test of a solvent group and a test drug group was performed in comparison between groups using Student's t-test or Dunnett multiple comparison test. With P<0.05 in each assay, it was determined that there was a significant difference.
Effectiveness in the abdominal pain test by rat colorectal distension of the several representative Example compounds of the invention is shown in the following Table (In the Table, MED means a minimum effective dose. The same shall apply hereinafter.).

[3] = tested on: monoiodoacetate-induced osteoarthritis model; test: Inhibitory effect on hindlimb weight distribution in monoiodoacetate-induced osteoarthritis model; type: in vivo, rat; settings: for significance versus solvent group: at the dose shown in Table 5, P<0.05; for Improvement rate: male SD rats, 1 mg/kg oral, 3 weeks after MIA, 1 or 2 hours after administration
Protocol: as §3
This model is a model of osteoarthritis, and action to osteoarthritis pain can be evaluated using the model. This test was performed based on The Journal of Pharmacology and Experimental Therapeutics, 2010, vol. 334, p. 955-963. Under isoflurane anesthesia, 1 mg/site of monoiodoacetate (hereinafter referred to as MIA) (manufactured by Sigma-Aldrich Co., LLC) solution was singly administered into the right knee joint cavity of male SD rats (provided by Charles River Laboratories, Japan). MIA was dissolved in physiological saline, and 50 μL thereof was administered using a 27 gauge×0.5 inches needle. 3 weeks after the MIA administration, the solvent or the test drug was orally administered. After 1 or 2 hours, the weight distribution between the left and the right hindlimb was measured using an Incapacitance Tester (manufactured by Linton Instrumentation). A significant difference test of a solvent group and a test drug group was performed in comparison between groups using Student's t-test or Dunnett multiple comparison test. With P<0.05 in each assay, it was determined that there was a significant difference.
Effectiveness with respect to a monoiodoacetate-induced osteoarthritis model of the several representative Example compounds of the invention is shown in the following Table.

[4] = tested on: reserpine-induced myalgia model; test: Effect on tenderness threshold value in reserpine-induced myalgia model; type: in vivo, rat
Protocol: as §3
This model is a model which imitates a fibromyalgia disease. This test was performed based on Pain, 2009, vol. 146, p 26-33. Reserpine (1 mg/kg) was subcutaneously administered into male SD rats (provided by Japan SLC, Inc, Japan) once a day for 3 days. After 5 days, the solvent or the test drug was orally administered. After 2 hours, a tenderness threshold value was measured using Randall-Selitto equipment (manufactured by Muromachi Kikai Co., Ltd.) in a gastrocnemius muscle. A significant difference test of a solvent group and a test drug-administered group was performed in comparison between groups using Student's t-test or Dunnett multiple comparison test. Here, a value obtained by administering the solvent to a normal rat to which reserpine was not administered was set as 100%, and a value of the reserpine group into which the solvent was administered was set as 0%. With P<0.05 in each assay, it was determined that there was a significant difference.

[5] = tested on: adjuvant-induced arthritis rat; test: Inhibitory effect on hindlimb weight distribution in adjuvant-induced arthritis rat; type: in vivo; settings: for significance versus solvent group: at the dose shown in Table 4, P<0.05; for MED (minimum effective dose): female Lewis rat, oral, 1 or 2 hours after administration, hindlimb weight distribution
Protocol: as §3
This model is a model to study inflammatory pain. 50 μL of killed Mycobacterium tuberculosis H37Ra (manufactured by DIFCO Laboratories) suspended in a liquid paraffin was subcutaneously administered into a right hindlimb footpad of a female Lewis rat (provided by Charles River Laboratories, Japan) so as to be 10 mg/mL. Next day, the solvent or the test drug was orally administered. After 1 or 2 hours, the weight distribution between the left and the right hindlimbs was measured using an Incapacitance Tester (manufactured by Linton Instrumentation). A significant difference test of a solvent group and a test drug group was performed in comparison between groups using Student's t-test or Dunnett multiple comparison test. With P<0.05 in each assay, it was determined that there was a significant difference.
Effectiveness in the adjuvant-induced arthritis rat test of the several representative Example compounds of the invention is shown in the following Table.

[6] = target: T1, IK1 channel; test: IK1 channel opening activity measurement test (membrane potential, human IK1 channel expressing CHO dhfr- cells); type: cell-based; design: expressed in transfected cells; host or cells: CHO dhfr- cells; settings: NS-309 0.2 μM = 100%, DMSO = 0%, read-out: EC50 of IK1 channel opening action
Protocol: as §1, §2

[7] = tested on: vagotomized rat; test: Action to tenderness threshold value in vagotomized rat; type: in vivo; settings: for significance versus solvent group: at the dose shown in Table 6, P<0.05; for Improvement rate (tenderness threshold value): male SD rats, 3 mg/kg oral, after 2 hours, sham = 100%, surgery solvent group = 0%
Protocol: as §3
The model was made based on Neuroscience, 2009, vol. 164, p. 1252-1262. Male SD rats (provided by Japan SLC, Inc, Japan) were anesthetized with somnopentyl, followed by shaving near a xiphisternum. Incision was performed along the midline from the xiphisternum to the tail side. A stomach and an esophagus under a diaphragm were exposed, and vagus nerves on both sides of the esophagus were transected. Muscle and skin were sutured in order. 1 to 3 weeks after the surgery, a decrease in the tenderness threshold value was confirmed. The solvent or the test drug was orally administered, and after 2 hours, the tenderness threshold value was measured using Randall-Selitto equipment (manufactured by Muromachi Kikai Co., Ltd.) in a gastrocnemius muscle. A significant difference test of a solvent group and a test drug group was performed in comparison between groups using Student's t-test or Dunnett multiple comparison test. With P<0.05 in each assay, it was determined that there was a significant difference.
Effectiveness of several representative Example compounds of the invention is shown in the following Table as an improvement rate when a value of a group in which the solvent was administered into a sham surgery group was set as 100%, and a value of a group in which the solvent was administered into a surgery group was set as 0%.

Row | SMILES | EC50 [1] | MED (minimum effective dose) [2] | significance versus solvent group [2] | significance versus solvent group [3] | Improvement rate [3] | significance versus solvent group ([4]; 1 mg/kg, P<0.05) | Improvement rate (tenderness threshold value) ([4]; male SD rats, 1 mg/kg oral, after 2 hours, normal rat = 100%, reserpine solvent group = 0%) | significance versus solvent group [5] | MED (minimum effective dose) [5] | EC50 [6] | significance versus solvent group [7] | Improvement rate (tenderness threshold value) [7]
1 | Cc1sc2cc(Cl)ccc2c1-c1ccc(N2CCO[C@H](CNC3CCC3)C2)c(C(=O)O)c1 [Ex10, 5-(6-chloro-2-methyl-1-benzothiophen-3-yl)-2-{(2R)-2-[(cyclobutylamino)methyl]morpholin-4-yl}benzoic acid monohydrochloride] | 3890 nM | 0.3 mg/kg | significant activity | significant activity | >50% (l mg/kg) | significant activity | higher than 50% | significant activity | 3 mg/kg | 93 nM | significant activity | >50% (3 mg/kg)
2 | O=C(O)c1cc(-c2c(F)sc3cc(Cl)ccc23)ccc1N1CCO[C@H](CNC2CCC2)C1 [Ex11, 5-(6-chloro-2-fluoro-1-benzothiophen-3-yl)-2-{(2R)-2-[(cyclobutylamino)methyl]morpholin-4-yl}benzoic acid hydrochloride] | 3070 nM |  |  | significant activity | >50% (l mg/kg) |  |  | significant activity | 3 mg/kg | 11 nM |  | 
3 | O=C(O)c1cc(-c2csc3cc(C(F)(F)F)ccc23)ccc1N1CCO[C@H](CNC2CCC2)C1 [Ex12] | 1750 nM |  |  |  |  |  |  |  |  | 24 nM |  | 
4 | Cc1sc2cc(F)ccc2c1-c1ccc(N2CCO[C@H](CNC3CCC3)C2)c(C(=O)O)c1 [Ex13] | 3760 nM |  |  |  |  |  |  |  |  | 52 nM |  | 
5 | CC(C)(C)NC[C@H]1CCCN(c2ccc(-c3csc4cc(C(F)(F)F)ccc34)cc2C(=O)O)C1 [Ex14, 2-{(3R)-3-[(tert-butylamino)methyl]piperidin-1-yl}-5-[6-(trifluoromethyl)-1-benzothiophen-3-yl]benzoic acid hydrochloride] | 3170 nM |  |  | significant activity | 42% (1 mg/kg) |  |  | significant activity | 1 mg/kg | 28 nM | significant activity | >50% (3 mg/kg)
6 | O=C(O)c1cc(-c2csc3cc(C(F)(F)F)c(Cl)cc23)ccc1N1CCO[C@H](CNC2CCC2)C1 [Ex15, 5-[5-chloro-6-(trifluoromethyl)-1-benzothiophen-3-yl]-2-{(2R)-2-[(cyclobutylamino)methyl]morpholin-4-yl}benzoic acid hydrochloride] |  |  |  |  |  |  |  |  |  |  | significant activity | >50% (3 mg/kg)
7 | Cc1sc2cc(Cl)ccc2c1-c1ccc(N2CCO[C@H](CNC(C)(C)C)C2)c(C(=O)O)c1 [Ex16] | 8040 nM |  |  |  |  |  |  |  |  | 33 nM |  | 
8 | Cc1sc2cc(Cl)c(F)cc2c1-c1ccc(N2CCO[C@H](CNC3CCC3)C2)c(C(=O)O)c1 [Ex18, 5-(6-chloro-5-fluoro-2-methyl-1-benzothiophen-3-yl)-2-{(2R)-2-[(cyclobutylamino)methyl]morpholin-4-yl}benzoic acid hydrochloride] | 920 nM | 0.3 mg/kg | significant activity | significant activity | >50% (1 mg/kg) |  |  | significant activity | 3 mg/kg | 48 nM | significant activity | >50% (3 mg/kg)
9 | Cc1sc2cc(Cl)c(F)cc2c1-c1ccc(N2CCO[C@H](CNC(C)(C)C)C2)c(C(=O)O)c1 [Ex19] | 1500 nM |  |  |  |  |  |  |  |  | 5.5 nM |  | 

From patent US9399038B2, “Benzothiophene compound” (ASTELLAS PHARMA INC., priority 2013, dated 2016)
